This test has as its system P388 leukemia ip, CD2F1 mice, survival T/C. Description: NCI In Vivo Anticancer Drug Screen. Data for tumor model P388 Leukemia (intraperitoneal) in CD2F1 (CDF1) mice. The settings on record: endpoint: median survival time, higher = longer survival. In short, it runs like this: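 Mice carrying the transplanted tumor received test compound or vehicle. Survival was recorded in each group, and the value is the treated-group measurement divided by that of the vehicle-treated control group.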

Where [1] appears, read: dose: 100.0 mg/kg/injection, schedule: Q01DX009 (ip), vehicle: saline with Tween-80.
The mark [2] stands for this setting: dose: 200.0 mg/kg/injection, schedule: Q01DX009 (ip), vehicle: saline with Tween-80.
Where [3] appears, read: dose: 60.0 mg/kg/injection, schedule: Q01DX005 (ip), vehicle: saline with Tween-80.
The mark [4] stands for this setting: dose: 120.0 mg/kg/injection, schedule: Q01DX005 (ip), vehicle: saline with Tween-80.
[5] abbreviates: dose: 240.0 mg/kg/injection, schedule: Q01DX005 (ip), vehicle: saline with Tween-80.
[6] abbreviates: dose: 25.0 mg/kg/injection, schedule: Q01DX009 (ip), vehicle: saline with Tween-80.
Setting [7] is: dose: 50.0 mg/kg/injection, schedule: Q01DX009 (ip), vehicle: saline with Tween-80.
[8] abbreviates: dose: 50.0 mg/kg/injection, schedule: Q01DX005 (ip), vehicle: Klucel (hydroxypropylcellulose) (HPC).
[9] abbreviates: dose: 100.0 mg/kg/injection, schedule: Q01DX005 (ip), vehicle: Klucel (hydroxypropylcellulose) (HPC).
The mark [10] stands for this setting: dose: 50.0 mg/kg/injection, schedule: Q01DX005 (ip), vehicle: saline with Tween-80.
[11] abbreviates: dose: 100.0 mg/kg/injection, schedule: Q01DX005 (ip), vehicle: saline with Tween-80.
Setting [12] is: dose: 200.0 mg/kg/injection, schedule: Q01DX005 (ip), vehicle: saline with Tween-80.

Where “and” joins values, the source holds several entries; their conditions need not be identical. Equal entries are not always repeated. Toxic doses and inconclusive results are not listed.

Regarding `Nc1nc(SC2CCCCC2)c2[nH]cnc2n1`, the T/C is, setting by setting: under setting [1], 90 % of control; (dose: 100.0 mg/kg/injection, schedule: Q04DX003 (ip), vehicle: saline with Tween-80) 100 % of control; under setting [2], 95 % of control; (dose: 200.0 mg/kg/injection, schedule: Q04DX003 (ip), vehicle: saline with Tween-80) 116 % of control; (dose: 400.0 mg/kg/injection, schedule: Q01DX009 (ip), vehicle: saline with Tween-80) 90 % of control; (dose: 400.0 mg/kg/injection, schedule: Q04DX003 (ip), vehicle: saline with Tween-80) 108 % of control.

As to `CCC(/C=C/c1ccccc1)=N\Nc1ccc(Cl)cc1`, the T/C by setting is: under setting [3], 104 % of control; under setting [4], 101 % of control; under setting [5], 98 % of control.

As to `COc1ccc(OC)c(Cc2cnc3nc(N)nc(N)c3c2C)c1`, the T/C (dose: 10.0 mg/kg/injection, schedule: Q01DX005 (ip), vehicle: dextrose) was 113 % of control; the T/C (dose: 10.0 mg/kg/injection, schedule: Q01DX005 (ip), vehicle: water) is 112 % of control; the T/C (dose: 25.0 mg/kg/injection, schedule: Q04DX003 (ip), vehicle: dextrose) was 115 % of control; the T/C (dose: 40.0 mg/kg/injection, schedule: Q01DX005 (ip), vehicle: dextrose) was 170 % of control; the T/C (dose: 100.0 mg/kg/injection, schedule: Q04DX003 (ip), vehicle: dextrose) is 166 % of control.

Consider `CN1C=c2c3c(ccc2=C2C=CC4C=C5OCOC5=CC4=C21)OCO3` (stereo not given), for which the T/C is, setting by setting: (dose: 4.0 mg/kg/injection, schedule: Q01DX009 (ip), vehicle: saline with Tween-80) 113 % of control; (dose: 8.0 mg/kg/injection, schedule: Q01DX009 (ip), vehicle: saline with Tween-80) 107 % of control; (dose: 16.0 mg/kg/injection, schedule: Q01DX009 (ip), vehicle: saline with Tween-80) 110 % of control.

For `O=C(O)c1cnc2cc(Cl)ccc2n1`, the T/C by setting is: under setting [6], 100 % of control; under setting [7], 100 % of control; under setting [1], 95 % of control.

Turning to `Cc1cc(OCc2nnc3n2S(=O)(=O)c2ccccc2N3C)ccc1Cl`, the T/C is 87 % of control under setting [3] and 90 % of control under setting [4].

Regarding `Cc1nn(C(=O)c2c(-c3ccccc3)noc2C)c(C)c1N=Nc1cc(C(F)(F)F)cc(C(F)(F)F)c1`, the T/C by setting is: under setting [7], 87 % of control; under setting [1], 87 % of control; under setting [2], 97 % of control.

In the case of `CCOC(=O)CC(O)(c1ccc2c(c1)OCO2)c1cc(OC)c(OC)c(OC)c1` (stereo not given), the T/C runs as follows: (dose: 12.5 mg/kg/injection, schedule: Q01DX005 (ip), vehicle: Klucel (hydroxypropylcellulose) (HPC)) 100 % of control; (dose: 25.0 mg/kg/injection, schedule: Q01DX005 (ip), vehicle: Klucel (hydroxypropylcellulose) (HPC)) 94 % of control; under setting [8], 94 % of control; under setting [9], 89 % of control; (dose: 200.0 mg/kg/injection, schedule: Q01DX005 (ip), vehicle: Klucel (hydroxypropylcellulose) (HPC)) 88 % of control.

As to `COc1ccc2c(c1)C1(C)C(=O)OC(C2=O)C1C` (stereo not given), the T/C was 104 % of control (dose: 50.0 mg/kg/injection, schedule: Q01DX001 (ip), vehicle: Klucel (hydroxypropylcellulose) (HPC)); 99 % of control (dose: 100.0 mg/kg/injection, schedule: Q01DX001 (ip), vehicle: Klucel (hydroxypropylcellulose) (HPC)); 114 % of control (dose: 200.0 mg/kg/injection, schedule: Q01DX001 (ip), vehicle: Klucel (hydroxypropylcellulose) (HPC)).

As to `CCC(=O)c1cc2ccccc2c2ccccc12`, the T/C (dose: 12.5 mg/kg/injection, schedule: Q01DX005 (ip), vehicle: saline) is 96 % of control; the T/C (dose: 25.0 mg/kg/injection, schedule: Q01DX005 (ip), vehicle: saline) is 100 % of control; the T/C under setting [10] was 103 % of control; the T/C (dose: 50.0 mg/kg/injection, schedule: Q01DX005 (ip), vehicle: saline) is 100 % of control.

In the case of `CC(=O)O[C@]12C=C[C@H](O1)[C@@H]1C(=O)NC(=O)[C@@H]12`, the T/C is 98 % of control (dose: 6.25 mg/kg/injection, schedule: Q04DX002 (ip), vehicle: saline); 106 % of control (dose: 12.5 mg/kg/injection, schedule: Q04DX002 (ip), vehicle: saline); 88 % of control (dose: 25.0 mg/kg/injection, schedule: Q04DX002 (ip), vehicle: saline).

With `OCC1(CO)COC2(CCCCC2)N1`, the T/C runs as follows: (dose: 50.0 mg/kg/injection, schedule: Q01DX009 (ip), vehicle: saline) 107 % of control; (dose: 100.0 mg/kg/injection, schedule: Q01DX009 (ip), vehicle: saline) 101 % of control and 120 % of control; (dose: 200.0 mg/kg/injection, schedule: Q01DX009 (ip), vehicle: saline) 100 % of control and 124 % of control.

Take `O=C(O)[C@@H]1c2ccccc2-c2ccccc2[C@H]1C(=O)O`: the T/C runs as follows: under setting [10], 98 % of control; under setting [11], 95 % of control; under setting [12], 107 % of control.

On to `O=C(CC(C(=O)c1ccccc1)N1CC1)c1ccccc1` (stereo not given), for which the T/C is, setting by setting: (dose: 6.25 mg/kg/injection, schedule: Q01DX009 (ip), vehicle: saline with Tween-80) 95 % of control; (dose: 12.5 mg/kg/injection, schedule: Q01DX009 (ip), vehicle: saline with Tween-80) 100 % of control; under setting [6], 100 % of control and 87 % of control; under setting [7], 116 % of control; under setting [1], 91 % of control.

In the case of `S=C(Nc1ccc(Cl)cc1)Nc1ncccn1`, the T/C reads like this: (dose: 12.5 mg/kg/injection, schedule: Q01DX009 (ip), vehicle: Klucel (hydroxypropylcellulose) (HPC)) 98 % of control; (dose: 25.0 mg/kg/injection, schedule: Q01DX009 (ip), vehicle: Klucel (hydroxypropylcellulose) (HPC)) 103 % of control; (dose: 50.0 mg/kg/injection, schedule: Q01DX009 (ip), vehicle: Klucel (hydroxypropylcellulose) (HPC)) 100 % of control and 97 % of control.

Take `Cc1cc(=O)n(-c2ccc(S(N)(=O)=O)cc2)c(C)c1C(=O)O`: the T/C reads like this: under setting [10], 98 % of control; under setting [11], 96 % of control; under setting [12], 103 % of control.

With `OCc1c(-c2ccccc2)c(-c2ccccc2)c2n1CCC2`, the T/C is, setting by setting: under setting [10], 103 % of control; under setting [11], 92 % of control; under setting [12], 99 % of control.

Consider `COCC(=O)c1ccc(C#N)cc1`, for which the T/C by setting is: (dose: 100.0 mg/kg/injection, schedule: Q04DX003 (ip), vehicle: saline) 100 % of control; (dose: 200.0 mg/kg/injection, schedule: Q04DX003 (ip), vehicle: saline) 100 % of control; (dose: 400.0 mg/kg/injection, schedule: Q04DX003 (ip), vehicle: saline) 100 % of control.

Regarding `Cn1c(=S)[nH]c2sc3c(c2c1=O)CCCC3`, the T/C is, setting by setting: under setting [4], 97 % of control; under setting [5], 96 % of control.

As for `COCCCNC(=O)c1nnn2c1nc(N)c1cc(Cl)ccc12`, the T/C reads like this: under setting [8], 94 % of control; under setting [9], 88 % of control.

Consider `NC(=O)C1CCC(c2ccccc2)(c2ccccc2)C1=O` (stereo not given), for which the T/C is 99 % of control (dose: 100.0 mg/kg/injection, schedule: Q04DX002 (ip), vehicle: saline with Tween-80); 105 % of control (dose: 200.0 mg/kg/injection, schedule: Q04DX002 (ip), vehicle: saline with Tween-80); 101 % of control (dose: 400.0 mg/kg/injection, schedule: Q04DX002 (ip), vehicle: saline with Tween-80).

As to `CC(C)(C)OP(=O)(O)OC(C)(C)C`, the T/C is, setting by setting: (dose: 25.0 mg/kg/injection, schedule: Q01DX009 (ip), vehicle: water) 103 % of control; (dose: 50.0 mg/kg/injection, schedule: Q01DX009 (ip), vehicle: water) 100 % of control; (dose: 100.0 mg/kg/injection, schedule: Q01DX009 (ip), vehicle: water) 107 % of control; (dose: 200.0 mg/kg/injection, schedule: Q01DX009 (ip), vehicle: water) 107 % of control; (dose: 400.0 mg/kg/injection, schedule: Q01DX009 (ip), vehicle: water) 112 % of control.
